Results: EP2724723A1, “Tegaserod for use in the treatment of nerve injuries” (Universitätsklinikum Hamburg-Eppendorf, priority 2012, dated 2014)

Tests used:
quadriceps muscle = test: Quadriceps muscle mass after femoral nerve injury; format: in vivo, C57BL/6J mice; conditions: 15 week recovery, control group 111 mg
Experimental: Tegaserod was evaluated in a 2 mm femoral nerve defect of 12-week old C57BL/6J mice as previously described in Mehanna et al. (2009), see above. Briefly, mice were anesthetized and the femoral nerve of the left rear leg exposed. The nerve was bis-sected 3 mm proximal to the branching of the saphenous and motor branches, and the nerve ends were sutured 0.5 mm into a 3 mm polyethylene conduits with 0.58 mm inner diameter (Becton Dickinson), leaving an overall gap length of 2 mm. Conduits were filled with PuraMatrix peptide hydrogel (Becton Dickinson 354250) using 2x PBS as the gelation stimulant. Tegaserod was dissolved in the 2x PBS at concentrations of 500 nM and 5,000 nM, resulting in final concentrations of 250 nM and 2,500 nM once the PBS was combined 1:1 v/v with the PuraMatrix.
The quadriceps muscle, which is solely innervated by the femoral nerve, was extracted from each mouse and weighed at the end of the 15 week recovery period. The quadriceps muscles were removed from the injured and uninjured hind limbs of the mice. The quadriceps femoris muscle was identified by first removing the skin overlying the cranial thigh. The muscle was bluntly dissected starting distally at the level of the patellar tendon, working proximally. […]

[1] = test system: cerebellar granule neurons (cGNs); test: In vitro neurite outgrowth of cerebellar granule neurons; format: cell-based, C57BL/6J mice; conditions: compared to control; Figure 2C, D
Experimental: (§1) Primary cultures of cerebellar neurons or Schwann cells were prepared from cerebellum or dorsal root ganglia of 7-day-old C57BL/6J mice as described in Mehanna et al. (2009), Brain, 132 (Pt 6): 1449-62 and Loers et al. (2005), J. Neurochem., 92(6): 1463-76. Motoneurons were prepared from E14 C57BL/6J mice as described in Simova et al. (2006), Ann. Neurol., 60(4): 430-437. In brief, 48-well plates were coated with 0.01% poly-L-lysine (PLL) or poly-L-ornithine (PLO) overnight at 4°C, washed twice with water and air-dried. Directly before use, plates were washed twice with PBS, and Schwann cells, cerebellar neurons (PLL) or motoneurons (PLO) were seeded at a density of 1.25 x 10^4 (Schwann cells and motoneurons) or 2.5 x 10^4 cells (cerebellar neurons) per well in 250 µl of corresponding serum-free culture medium. Soluble organic compounds were added to the culture 1 h after seeding in increasing concentrations. After maintenance for 24 h at 37°C, cells were fixed with 2.5% glutaraldehyde and stained with 1% methylene blue/toluidine blue in 1% borax. Morphological quantification of neurite or process lengths was performed as described in Mehanna et al. (2009), see above. Schwann cell processes and neurites of cerebellar neurons with a length of at least one cell body diameter were counted and total neurite or process length per cell was determined by counting 50 cells in each of two wells per experiment. At least three independent experiments were performed for each culture. Also, the activity of tegaserod with the PSA peptide mimic and the bacterial PSA analogue, colominic acid, on neurite and process extension experiments was compared.

[2] = test system: motoneurons isolated from NCAM^-/- mice; test: In vitro neurite outgrowth of NCAM-deficient motoneurons; format: cell-based; conditions: tegaserod 100 nM; colominic acid 3 µM; PSA mimicking peptide 30 µM; Figure 2B
Experimental: as §1, with “After maintenance for 24 h at 37°C, cells were fixed with 2.5% glutaraldehyde and stained with 1% methylene blue/toluidine blue in 1% borax.” left out, “At least three independent experiments were performed for each culture. Also, the activity of tegaserod with the PSA peptide mimic and the bacterial PSA analogue, colominic acid, on neurite and process extension experiments was compared.” left out

Schwann cells = test: In vitro process outgrowth of Schwann cells; format: cell-based, C57BL/6J mice; conditions: compared to control; Figure 2C, D
Experimental: as §1, with “After maintenance for 24 h at 37°C, cells were fixed with 2.5% glutaraldehyde and stained with 1% methylene blue/toluidine blue in 1% borax.” left out, “At least three independent experiments were performed for each culture. Also, the activity of tegaserod with the PSA peptide mimic and the bacterial PSA analogue, colominic acid, on neurite and process extension experiments was compared.” left out

murine motoneurons = test: In vitro neurite outgrowth of motoneurons; format: cell-based, C57BL/6J mice; conditions: tegaserod, cisapride, GR113808 100 nM; colominic acid 3 µM; PSA mimicking peptide 30 µM; Figure 2B
Experimental: as §1

[3] = test system: PSA specific monoclonal antibody 735; test: Surface plasmon resonance competition experiment (BIAcore 3000); format: binding; conditions: compared to antibody not mixed with tegaserod; antibody 10 nM pre-incubated with 1-30 µM compound; Figure 1B
Experimental: The running buffer was phosphate-buffered saline (PBS, pH 7.4). PSA mimicking peptide coupled to catalase was covalently immobilized to CM5 sensor chips (carboxymethyl dextran; GE Healthcare Europe GmbH) via primary amino groups, using standard coupling protocols (Karlsson et al. (1991); J. Immunol. Methods 145 (1-2): 229-240. In brief, the sensor surface was activated by a 7-min pulse of 0.2 M N-ethyl-N-(3-dimethylaminopropyl) carbodiimide and 50 mM N-hydroxysuccinimide. The PSA peptide solution (10 nM in 10 mM sodium acetate, pH 5.2) was then injected for 5-10 min. Ethanolamine (1 M, pH 8.5) was used to block remaining activated carboxyl groups. Ligand densities of 100-150 fmol/mm^2 were reached. Immobilized control peptide (10 nM PSA scrambled peptide coupled to catalase) was used as a reference surface. […] The data were analyzed using the BIAevaluation 3.0 software. All sensorgrams were corrected for background and bulk refractive index by subtraction of the reference.
To confirm that tegaserod binds specifically to antibody 735, a competition experiment was performed. First, the PSA specific monoclonal antibody 735 (10 nM) was pre-incubated for 1 h at room temperature with different molar concentrations (1, 2, 5, 8, 15 and 30 µM) of tegaserod or control compound. Then the antibody/organic compound solutions were injected ([…]) to the PSA peptide-coupled chip. […]

735 anti PSA antibody = test: Screening ELISA of the NIH Clinical Collection 1 Library for organic PSA mimetics; format: binding; conditions: 10 µM of library compound pre-incubated with 735 antibody; repeated three times
Experimental: To identify organic PSA mimetics the NIH Clinical Collection 1 Library was screened. PSA mimicking peptide (NTHTDPYIYPIDC; Mehanna et al., (2009); Brain 132 (Pt 6): 1449-1462.) coupled to catalase (3 µg/ml; 25 µl/well) was immobilized on the surface of 384-well flat bottom microtiter plates with high binding surface (Corning Life Sciences, Amsterdam, The Netherlands). Wells were washed with […], blocked with 1% bovine serum albumin for 1 h at room temperature. 735 anti PSA antibody (0.1 µg/ml; 25 µl/well) was incubated with PBS, PBS containing DMSO solvent control or PBS containing 10 µM of the organic compounds from the library for 1 h at room temperature and then added to the wells coated with […] coupled to catalase. As control for positive competition, 735 antibody was incubated with the PSA mimicking peptide (10 µM). After incubation for 1 h, wells were washed 10 times with PBS containing 0.05% Tween-20 (PBST), HRP-coupled secondary antibody (1:5,000 in PBS) was added for 1 h and after 10 more washes with PBST, binding of antibody was visualized by incubating wells with 25 µl of 0.4 mg/ml o-phenylenediamine dihydrochloride (Thermo Scientific) for 15 min. The reaction was stopped by addition of 25 µl 2.5 M H2SO4 and quantified using an ELISA reader (EnVision with Plateworks software, Perkin Elmer, Hamburg, Germany). […]

## [H]/N=C(/NCCCCC)N/N=C/c1c[nH]c2ccc(OC)cc12 [tegaserod, (E)-but-2-enedioic acid; 1-[[(Z)-(5-methoxyindol-3-ylidene)methyl]amino]-2-pentylguanidine]
Quadriceps muscle; 250 nM, non-injured legs 208 mg
  average quadriceps muscle mass, injured limb: 165 mg
Quadriceps muscle; 2,500 nM, failed to reach statistical significance
  quadriceps muscle mass, injured limb: 127 mg
[1]
  effect on neurite outgrowth of cGNs (in words): significantly enhance neurite/process outgrowth compared to control
[2]
  effect on neurite extension of NCAM^-/- motoneurons (in words): no enhancement in neurite extension
Schwann cells
  effect on process outgrowth of Schwann cells (in words): significantly enhance neurite/process outgrowth compared to control
Murine motoneurons
  effect on neurite extension of murine motoneurons (in words): significant stimulatory effect
[3]
  disruption of the capability of mAb 735 to bind to the PSA peptide mimic bound to the chip surface: 80%
735 anti PSA antibody
  identification as organic compound that could potentially mimic PSA: could potentially mimic PSA
